Laboratory results reported in US12552800B2, “Compounds for diagnosis” (AC IMMUNE SA, priority 2020, dated 2026).
pKi: −log10 of the molar value.

Target: T1, PD brain-derived a-syn aggregates (Homo sapiens, UniProt P37840)
T1 construct: from tissue; host or cells: human PD donor brain, sarkosyl-insoluble 100,000 x g pellet
Test: Micro-radiobinding competition assay against Example-1 [^3H-1] (Table 8)
Type: binding
Conditions: for Competition at 100 nM (%): 100 nM non-radiolabelled example compound vs Example-1 [^3H-1] ligand; for Competition at 100 nM (%) / Competition at 1 μM (%): human PD brain-derived a-syn aggregates; for Competition at 1 μM (%): 1 μM non-radiolabelled example compound vs Example-1 [^3H-1] ligand
Description: PD brain-derived a-syn aggregates were spotted onto microarray slides. The slides were incubated with the Example-1 [^3H-1] at 6 nM or 20 nM and the example compounds (non-radiolabelled) at 1 μM and 100 nM. In some cases, the non-radiolabelled example compounds were further assessed for a range of different concentrations, varying from 0.05 nM to 2 μM. After incubation, slides were washed and scanned by a real-time autoradiography system (BeaQuant, ai4R). Quantification of the signal was performed by using the Beamage image analysis software (ai4R). […] All measurements were performed with at least two technical replicates. For compounds tested in more than one experiment, the mean of the replicates or K; values in independent experiments is reported.
Results: Example compounds were assessed for their potency to compete with the binding of Example-1 [^3H-1] ligand to PD patient brain-derived a-syn aggregates. Results of the micro-radiobinding competition assay for the example compounds tested are shown in Table 8 as: % competition at 1 μM and 100 nM.

Competition at 100 nM (%) | Competition at 1 μM (%) | pKi (mean of Ki values in independent experiments using PD brain-derived homogenates from two different donors) | Structure (SMILES)
35 | 84 |  | O=C1c2cn(-c3ccc(N4CC[C@@H](F)C4)nc3)nc2CN1c1ncco1 [Example 137]
71 | 97 |  | Cn1ccc(N2Cc3nn(-c4ccc(N5CC[C@@H](F)C5)nc4)cc3C2=O)n1 [Example 116]
71 | 86 |  | O=C1c2cn(-c3ccc(N4CC[C@H](F)C4)nc3)nc2CN1c1ccns1 [Example 127]
75 | 83 |  | O=C1c2cn(-c3ccc(N4CC[C@@H](F)C4)nc3)nc2CN1c1cncs1 [Example 126]
31 | 57 |  | CC(C)c1ccc(-n2cc3c(n2)CN(c2cncc(F)n2)C3=O)cn1 [Example 153]
17 | 67 |  | CC(C)n1cc(N2Cc3nn(-c4ccc(N5CC[C@@H](F)C5)nc4)cc3C2=O)cn1 [Example 117]
32 | 65 |  | O=C1c2cn(-c3ccc(N4CC[C@@H](F)C4)nc3)nc2CN1c1ccccc1O [Example 175]
92 | 98 |  | O=C1c2cn(-c3ccc(N4CCCC4)nc3)nc2CN1c1ccc(F)cn1 [Example 115]
80 | 85 |  | N#Cc1ccc(-n2cc3c(n2)CN(c2cccc(F)n2)C3=O)cn1 [Example 156]
24 | 39 |  | Cc1c2c(nn1-c1ccc(N3CC[C@@H](F)C3)nc1)CN(c1cnn(C)c1)C2=O [Example 96]
75 | 105 |  | Cc1ccc(N2Cc3nn(-c4ccc(N5CC[C@@H](F)C5)nc4)cc3C2=O)nc1 [Example 110]
12 | 51 |  | CC(C)n1cc(N2Cc3nn(-c4ccc(N5CC[C@H](F)C5)nc4)cc3C2=O)cn1 [Example 119]
82 | 97 |  | N#Cc1cc(N2Cc3nn(-c4ccc(N5CC[C@H](F)C5)nc4)cc3C2=O)ccn1 [Example 111]
74 |  |  | O=C1c2cn(-c3ccc(N4CC[C@@H](F)C4)nc3)nc2CN1c1nccs1 [Example 134]
 | 53 |  | Cn1cc(-n2cc3c(n2)CN(c2cncc(F)n2)C3=O)cn1 [Example 149]
80 | 99 |  | O=C1c2cn(-c3ccc(N4CC[C@@H](F)C4)nc3)nc2CN1c1ccns1 [Example 125]
32 | 57 |  | O=C1c2cn(-c3ccc(F)cn3)nc2CN1c1cccnc1 [Example 138]
55 | 85 |  | O=C1c2cn(-c3ccc(N4CC[C@H](F)C4)nc3)nc2CN1c1cncs1 [Example 128]
95 | 100 |  | COc1cc(N2Cc3nn(-c4ccc(N5CC[C@H](F)C5)nc4)cc3C2=O)ccn1 [Example 106]
65 | 102 |  | O=C1c2cn(-c3ccc(N4CC[C@H](F)C4)nc3)nc2CN1c1cc(O)ccn1 [Example 170]

Further lines, the compound ahead of its results:

Structure (SMILES) | Competition at 100 nM (%) | Competition at 1 μM (%) | pKi (mean of Ki values in independent experiments using PD brain-derived homogenates from two different donors)
O=C1c2cn(-c3ccc(N4CC[C@@H](F)C4)nc3)nc2CN1c1cncnc1 [Example 14] | 42 | 77 | 
N#Cc1ccnc(N2Cc3nn(-c4ccc(N5CC[C@@H](F)C5)nc4)cc3C2=O)c1 [Example 86] | 64 |  | 
O=C1c2cn(-c3ccc(N4CC[C@@H](F)C4)nc3)nc2CN1c1cccc(F)c1 [Example 68] | 63 |  | 
N#Cc1ccc(N2Cc3nn(-c4ccc(N5CC[C@@H](F)C5)nc4)cc3C2=O)cn1 [Example 57] | 88 |  | 
O=C1c2cn(-c3ccc(N4CC[C@H](F)C4)nc3)nc2CN1c1ccccc1F [Example 71] | 18 | 51 | 
O=C1c2cn(-c3ccc(N4CC[C@H](F)C4)nc3)nc2CN1c1cncnc1 [Example 16] | 32 | 70 | 
Cc1ccc(N2Cc3nn(-c4ccc(N5CC[C@@H](F)C5)nc4)cc3C2=O)cc1 [Example 60] | 70 | 71 | 
Cc1cccc(N2Cc3nn(-c4ccc(N5CC[C@H](F)C5)nc4)cc3C2=O)n1 [Example 83] | 47 |  | 
Cc1cccc(N2Cc3nn(-c4ccc(N5CC[C@@H](F)C5)nc4)cc3C2=O)n1 [Example 75] | 58 | 73 | 
O=C1c2cn(-c3ccc(NC4CC(F)C4)nc3)nc2CN1c1ccccn1 (stereo not shown) [Example 89] | 29 | 75 | 
N#Cc1cc(N2Cc3nn(-c4ccc(N5CC[C@@H](F)C5)nc4)cc3C2=O)ccc1N [Example 23] |  | 81 | 
O=C1c2cn(-c3ccc(N4CC[C@H](F)C4)nc3)nc2CN1c1cccc(F)c1 [Example 70] | 65 |  | 
COc1cccc(N2Cc3nn(-c4ccc(N5CC[C@@H](F)C5)nc4)cc3C2=O)c1 [Example 34] | 80 | 89 | 
Cc1ccnc(N2Cc3nn(-c4ccc(N5CC[C@H](F)C5)nc4)cc3C2=O)c1 [Example 82] | 84 |  | 
N#Cc1ccc(N2Cc3nn(-c4ccc(N5CC[C@H](F)C5)nc4)cc3C2=O)cc1N [Example 21] |  | 84 | 
N#Cc1cccc(N2Cc3nn(-c4ccc(N5CC[C@H](F)C5)nc4)cc3C2=O)n1 [Example 84] | 14 | 38 | 
N#Cc1cccc(N2Cc3nn(-c4ccc(N5CC[C@H](F)C5)nc4)cc3C2=O)c1 [Example 65] | 64 |  | 
COc1ccccc1N1Cc2nn(-c3ccc(N4CC[C@@H](F)C4)nc3)cc2C1=O [Example 62] | 8 | 27 | 
O=C1c2cn(-c3ccc(N4CC[C@H](F)C4)cn3)nc2CN1c1cccnc1 [Example 72] | 45 | 79 | 
COc1ccnc(N2Cc3nn(-c4ccc(N5CC[C@@H](F)C5)nc4)cc3C2=O)c1 [Example 76] | 69 | 93 | 
Cc1ncccc1N1Cc2nn(-c3ccc(N4CC[C@@H](F)C4)nc3)cc2C1=O [Example 12] |  | 25 | 
O=C1c2cn(-c3ccc(N4CCCC4)nc3)nc2CN1c1ccnc(F)c1 [Example 41] | 61 | 93 | 
Cc1ccc(N2Cc3nn(-c4ccc(N5CC[C@@H](F)C5)nc4)cc3C2=O)cn1 [Example 10] | 58 | 90 | 7.21
COc1ccc(N2Cc3nn(-c4ccc(N5CC[C@@H](F)C5)nc4)cc3C2=O)cn1 [Example 8] | 67 | 91 | 
COc1ccc(N2Cc3nn(-c4ccc(N5CC[C@@H](F)C5)nc4)cc3C2=O)nc1 [Example 58] | 85 | 98 | 
COc1ccccc1N1Cc2nn(-c3ccc(N4CC[C@H](F)C4)nc3)cc2C1=O [Example 37] | 37 |  | 
O=C1c2cn(-c3ccc(N4CC[C@H](F)C4)nc3)nc2CN1c1ccccc1 [Example 20] | 48 | 90 | 
